From paper PMC10046369, “Low-Affinity/High-Selectivity Dopamine Transport Inhibition Sufficient to Rescue Cognitive Functions in the Aging Rat” (Biomolecules, 2023)

Experiments:
Test in all cases: cell-based
Set-up in all cases: functional GPCR antagonist screen (Eurofins Cerep), percent inhibition of control agonist response
Details in all cases: antagonist effect, against control agonist; read-out: % Inhibition of Control Agonist Response, Mean
OX1 (h) = target: T1, OX1 (h) (Homo sapiens, UniProt O43613)
T1 construct: gene HCRTR1

MC3 (h) = target: T2, MC3 (h) (Homo sapiens, UniProt P41968)
T2 construct: gene MC3R

S1P3 (h) = target: T3, S1P3 (h) (Homo sapiens, UniProt Q99500)
T3 construct: gene S1PR3
T3 sequence (Q99500 whole entry): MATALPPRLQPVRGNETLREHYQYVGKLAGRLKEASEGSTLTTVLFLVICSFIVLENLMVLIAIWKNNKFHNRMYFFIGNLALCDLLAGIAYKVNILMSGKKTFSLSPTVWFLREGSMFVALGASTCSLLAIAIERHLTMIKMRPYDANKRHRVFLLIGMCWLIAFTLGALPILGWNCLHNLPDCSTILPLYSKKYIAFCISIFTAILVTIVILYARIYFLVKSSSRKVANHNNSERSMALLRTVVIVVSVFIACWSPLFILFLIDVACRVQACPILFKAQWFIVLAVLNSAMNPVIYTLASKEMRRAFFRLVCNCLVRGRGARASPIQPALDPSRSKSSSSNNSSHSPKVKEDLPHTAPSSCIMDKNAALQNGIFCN

NTS1 (NT1) (h) = target: T4, NTS1 (NT1) (h) (Homo sapiens, UniProt P30989)
T4 construct: gene NTSR1
T4 sequence (P30989 whole entry): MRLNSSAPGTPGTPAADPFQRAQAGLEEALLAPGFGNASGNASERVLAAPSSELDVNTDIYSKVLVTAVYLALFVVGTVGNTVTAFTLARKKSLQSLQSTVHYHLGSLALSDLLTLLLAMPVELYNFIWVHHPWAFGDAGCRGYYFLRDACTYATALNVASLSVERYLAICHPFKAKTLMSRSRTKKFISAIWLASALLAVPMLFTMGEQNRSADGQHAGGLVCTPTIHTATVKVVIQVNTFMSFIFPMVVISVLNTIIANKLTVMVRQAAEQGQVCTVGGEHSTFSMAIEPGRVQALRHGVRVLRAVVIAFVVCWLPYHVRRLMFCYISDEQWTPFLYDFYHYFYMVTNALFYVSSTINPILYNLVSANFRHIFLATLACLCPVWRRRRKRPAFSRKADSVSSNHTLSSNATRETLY

motilin (h) = target: T5, motilin (h) (Homo sapiens, UniProt O43193)
T5 construct: gene MLNR
T5 sequence (O43193 whole entry): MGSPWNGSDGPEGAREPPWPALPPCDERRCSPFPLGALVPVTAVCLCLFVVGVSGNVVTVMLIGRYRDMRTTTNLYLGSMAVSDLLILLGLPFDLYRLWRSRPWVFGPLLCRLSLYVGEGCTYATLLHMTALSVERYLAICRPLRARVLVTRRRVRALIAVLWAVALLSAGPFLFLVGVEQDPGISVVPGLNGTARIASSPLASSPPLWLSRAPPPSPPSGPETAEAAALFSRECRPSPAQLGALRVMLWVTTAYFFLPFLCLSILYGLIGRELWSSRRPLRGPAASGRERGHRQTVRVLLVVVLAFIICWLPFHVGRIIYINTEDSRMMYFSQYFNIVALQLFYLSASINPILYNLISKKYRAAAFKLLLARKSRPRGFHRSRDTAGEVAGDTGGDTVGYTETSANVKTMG

PK2 (h) = target: T6, PK2 (h) (Homo sapiens, UniProt Q8NFJ6)
T6 construct: gene PROKR2

PAF (h) = target: T7, PAF (h) (Homo sapiens, UniProt P25105)
T7 construct: gene PTAFR

EP3 (h) = target: T8, EP3 (h) (Homo sapiens, UniProt P43115)
T8 construct: gene PTGER3

NK2 (h) = target: T9, NK2 (h) (Homo sapiens, UniProt P21452)
T9 construct: gene TACR2

P2Y1 (h) = target: T10, P2Y1 (h) (Homo sapiens, UniProt P47900)
T10 construct: gene P2RY1
T10 sequence (P47900 whole entry): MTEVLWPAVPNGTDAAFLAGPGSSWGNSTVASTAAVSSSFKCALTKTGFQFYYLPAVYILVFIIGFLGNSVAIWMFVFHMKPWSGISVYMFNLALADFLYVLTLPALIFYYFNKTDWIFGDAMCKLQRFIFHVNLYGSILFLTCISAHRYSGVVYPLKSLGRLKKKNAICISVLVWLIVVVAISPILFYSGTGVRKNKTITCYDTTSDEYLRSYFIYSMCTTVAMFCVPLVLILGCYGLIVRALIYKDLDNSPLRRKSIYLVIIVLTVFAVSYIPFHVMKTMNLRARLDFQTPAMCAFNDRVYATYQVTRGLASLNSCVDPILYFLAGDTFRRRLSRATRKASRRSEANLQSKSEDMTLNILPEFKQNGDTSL

NOP (h) (ORL1) = target: T11, NOP (h) (ORL1) (Homo sapiens, UniProt P41146)
T11 construct: gene OPRL1
T11 sequence (P41146 whole entry): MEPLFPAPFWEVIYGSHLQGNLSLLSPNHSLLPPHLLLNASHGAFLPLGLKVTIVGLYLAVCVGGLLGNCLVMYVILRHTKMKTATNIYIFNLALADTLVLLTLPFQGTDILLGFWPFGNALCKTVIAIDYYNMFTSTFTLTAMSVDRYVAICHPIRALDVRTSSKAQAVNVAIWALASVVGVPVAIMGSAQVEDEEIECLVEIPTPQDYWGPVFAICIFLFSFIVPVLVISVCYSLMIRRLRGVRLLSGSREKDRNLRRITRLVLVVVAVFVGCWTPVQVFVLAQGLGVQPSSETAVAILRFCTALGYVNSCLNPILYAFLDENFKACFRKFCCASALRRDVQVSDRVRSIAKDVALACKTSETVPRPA

PK1 (h) = target: T12, PK1 (h) (Homo sapiens, UniProt Q8TCW9)
T12 construct: gene PROKR1

δ (DOP) (h) = target: T13, δ (DOP) (h) (Homo sapiens, UniProt P41143)
T13 construct: gene OPRD1

NMU2 (h) = target: T14, NMU2 (h) (Homo sapiens, UniProt Q9GZQ4)
T14 construct: gene NMUR2

NK1 (h) = target: T15, NK1 (h) (Homo sapiens, UniProt P25103)
T15 construct: gene TACR1
T15 sequence (P25103 whole entry): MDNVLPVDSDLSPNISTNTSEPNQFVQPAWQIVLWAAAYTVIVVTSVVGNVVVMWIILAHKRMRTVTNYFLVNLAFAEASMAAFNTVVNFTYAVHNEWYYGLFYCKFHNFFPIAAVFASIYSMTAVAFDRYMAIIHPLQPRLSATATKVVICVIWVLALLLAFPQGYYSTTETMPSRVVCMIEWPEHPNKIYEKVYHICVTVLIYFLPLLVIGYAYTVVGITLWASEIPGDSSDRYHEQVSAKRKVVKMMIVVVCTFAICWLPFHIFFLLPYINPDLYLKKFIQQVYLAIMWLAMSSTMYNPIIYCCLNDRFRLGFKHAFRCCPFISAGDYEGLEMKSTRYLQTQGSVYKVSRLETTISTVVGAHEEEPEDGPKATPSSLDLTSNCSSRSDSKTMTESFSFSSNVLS

MrgD (h) = target: T16, MrgD (h) (Homo sapiens, UniProt Q8TDS7)
T16 construct: gene MRGPRD
T16 sequence (Q8TDS7 whole entry): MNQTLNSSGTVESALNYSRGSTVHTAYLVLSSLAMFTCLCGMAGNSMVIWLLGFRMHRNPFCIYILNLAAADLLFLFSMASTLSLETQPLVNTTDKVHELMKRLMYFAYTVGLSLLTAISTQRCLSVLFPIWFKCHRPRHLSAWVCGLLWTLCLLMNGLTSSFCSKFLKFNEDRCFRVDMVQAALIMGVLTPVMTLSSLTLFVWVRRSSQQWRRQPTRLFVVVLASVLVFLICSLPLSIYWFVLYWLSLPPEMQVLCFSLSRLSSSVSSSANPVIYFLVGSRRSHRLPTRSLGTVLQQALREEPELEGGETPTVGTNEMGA

S1P1 (h) = target: T17, S1P1 (h) (Homo sapiens, UniProt P21453)
T17 construct: gene S1PR1
T17 sequence (P21453 whole entry): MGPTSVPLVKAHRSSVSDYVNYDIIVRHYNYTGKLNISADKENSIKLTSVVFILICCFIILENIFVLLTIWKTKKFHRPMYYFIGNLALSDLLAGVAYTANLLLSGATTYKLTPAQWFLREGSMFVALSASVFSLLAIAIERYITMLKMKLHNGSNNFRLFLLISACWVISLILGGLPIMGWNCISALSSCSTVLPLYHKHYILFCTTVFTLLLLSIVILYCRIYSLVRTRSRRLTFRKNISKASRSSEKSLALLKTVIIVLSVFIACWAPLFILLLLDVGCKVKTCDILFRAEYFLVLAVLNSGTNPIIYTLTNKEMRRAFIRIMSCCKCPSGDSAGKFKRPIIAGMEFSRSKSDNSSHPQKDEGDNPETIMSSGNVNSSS

LPA3 (h) = target: T18, LPA3 (h) (Homo sapiens, UniProt Q9UBY5)
T18 construct: gene LPAR3
T18 sequence (Q9UBY5 whole entry): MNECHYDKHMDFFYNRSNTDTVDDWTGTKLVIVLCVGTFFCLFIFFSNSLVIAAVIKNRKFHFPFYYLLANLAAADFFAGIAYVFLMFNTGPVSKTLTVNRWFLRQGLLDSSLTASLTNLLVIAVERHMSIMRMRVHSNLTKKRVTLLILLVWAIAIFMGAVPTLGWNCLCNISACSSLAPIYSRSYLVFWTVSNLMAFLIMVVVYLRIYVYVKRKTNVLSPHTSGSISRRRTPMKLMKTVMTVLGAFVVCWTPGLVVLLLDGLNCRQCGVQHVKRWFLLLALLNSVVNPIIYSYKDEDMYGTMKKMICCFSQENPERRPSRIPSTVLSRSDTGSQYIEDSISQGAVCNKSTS

M5 (h) = target: T19, M5 (h) (Homo sapiens, UniProt P08912)
T19 construct: gene CHRM5

NPS (h) = target: T20, NPS (h) (Homo sapiens, UniProt Q6W5P4)
T20 construct: gene NPSR1
T20 sequence (Q6W5P4 whole entry): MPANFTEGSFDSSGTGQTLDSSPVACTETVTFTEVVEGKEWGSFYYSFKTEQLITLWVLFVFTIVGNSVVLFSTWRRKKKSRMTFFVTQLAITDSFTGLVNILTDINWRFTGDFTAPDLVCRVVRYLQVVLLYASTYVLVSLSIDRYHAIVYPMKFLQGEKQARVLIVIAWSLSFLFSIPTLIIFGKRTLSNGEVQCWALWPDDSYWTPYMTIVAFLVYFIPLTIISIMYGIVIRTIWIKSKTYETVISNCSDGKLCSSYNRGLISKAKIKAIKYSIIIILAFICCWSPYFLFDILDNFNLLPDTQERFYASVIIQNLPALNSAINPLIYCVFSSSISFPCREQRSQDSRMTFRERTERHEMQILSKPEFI

FP (h) = target: T21, FP (h) (Homo sapiens, UniProt P43088)
T21 construct: gene PTGFR

MCH2 (h) = target: T22, MCH2 (h) (Homo sapiens, UniProt Q969V1)
T22 construct: gene MCHR2

MT1 (ML1A) (h) = target: T23, MT1 (ML1A) (h) (Homo sapiens, UniProt P48039)
T23 construct: gene MTNR1A
T23 sequence (P48039 whole entry): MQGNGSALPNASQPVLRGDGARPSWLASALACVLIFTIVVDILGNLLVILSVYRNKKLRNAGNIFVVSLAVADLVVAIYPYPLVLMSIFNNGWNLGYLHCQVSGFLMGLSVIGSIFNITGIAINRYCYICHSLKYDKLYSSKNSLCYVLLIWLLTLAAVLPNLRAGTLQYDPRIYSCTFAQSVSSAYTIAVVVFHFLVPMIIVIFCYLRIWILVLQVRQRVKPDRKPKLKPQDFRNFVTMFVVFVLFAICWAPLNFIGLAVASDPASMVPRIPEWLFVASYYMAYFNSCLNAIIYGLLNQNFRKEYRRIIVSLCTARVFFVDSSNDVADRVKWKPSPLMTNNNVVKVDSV

EP1 (h) = target: T24, EP1 (h) (Homo sapiens, UniProt P34995)
T24 construct: gene PTGER1
T24 sequence (P34995 whole entry): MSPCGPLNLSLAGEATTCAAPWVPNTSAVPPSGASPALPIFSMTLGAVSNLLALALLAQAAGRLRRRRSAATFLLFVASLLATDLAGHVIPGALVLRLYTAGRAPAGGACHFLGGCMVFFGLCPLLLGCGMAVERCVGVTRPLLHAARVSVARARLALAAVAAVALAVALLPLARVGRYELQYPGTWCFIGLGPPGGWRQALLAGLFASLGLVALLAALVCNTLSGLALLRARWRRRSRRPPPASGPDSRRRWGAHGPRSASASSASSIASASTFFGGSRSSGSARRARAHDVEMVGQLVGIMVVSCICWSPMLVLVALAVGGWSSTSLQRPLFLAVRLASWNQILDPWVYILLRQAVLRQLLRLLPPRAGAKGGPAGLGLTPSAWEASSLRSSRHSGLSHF

MC5 (h) = target: T25, MC5 (h) (Homo sapiens, UniProt P33032)
T25 construct: gene MC5R
T25 sequence (P33032 whole entry): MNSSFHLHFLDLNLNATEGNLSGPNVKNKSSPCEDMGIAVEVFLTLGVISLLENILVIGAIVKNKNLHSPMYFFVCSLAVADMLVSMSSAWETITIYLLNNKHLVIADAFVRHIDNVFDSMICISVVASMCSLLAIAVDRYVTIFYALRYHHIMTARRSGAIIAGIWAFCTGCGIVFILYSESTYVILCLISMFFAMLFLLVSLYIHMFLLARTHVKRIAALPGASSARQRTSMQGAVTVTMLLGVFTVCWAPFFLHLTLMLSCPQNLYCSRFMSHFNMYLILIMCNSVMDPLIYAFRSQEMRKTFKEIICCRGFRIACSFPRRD

[O-][S@@+](Cc1cncs1)C(c1ccccc1)c1ccccc1 [S-CE-123, (S)-5-((Benzhydrylsulfinyl)Methyl)Thiazole]
inhibition at 2.8 µM (OX1 (h)): -14.5% | inhibition at 2.8 µM (MC3 (h)): -7.8% | inhibition at 2.8 µM (S1P3 (h)): 12.2% | inhibition at 2.8 µM (NTS1 (NT1) (h)): -10% | inhibition at 2.8 µM (motilin (h)): -5.2% | inhibition at 2.8 µM (PK2 (h)): 7.3% | inhibition at 2.8 µM (PAF (h)): -39.1% | inhibition at 2.8 µM (EP3 (h)): -30.8% | inhibition at 2.8 µM (NK2 (h)): -0.8% | inhibition at 2.8 µM (P2Y1 (h)): -6.7% | inhibition at 2.8 µM (NOP (h) (ORL1)): 18.4% | inhibition at 2.8 µM (PK1 (h)): 2.5% | inhibition at 2.8 µM (δ (DOP) (h)): -2.8% | inhibition at 2.8 µM (NMU2 (h)): -17.7% | inhibition at 2.8 µM (NK1 (h)): -5.3% | inhibition at 2.8 µM (MrgD (h)): 30% | inhibition at 2.8 µM (S1P1 (h)): 5.9% | inhibition at 2.8 µM (LPA3 (h)): -34.4% | inhibition at 2.8 µM (M5 (h)): -5.9% | inhibition at 2.8 µM (NPS (h)): -14.3% | inhibition at 2.8 µM (FP (h)): 6.7% | inhibition at 2.8 µM (MCH2 (h)): 3.1% | inhibition at 2.8 µM (MT1 (ML1A) (h)): 7.6% | inhibition at 2.8 µM (EP1 (h)): -11.9% | inhibition at 2.8 µM (MC5 (h)): -8.9%
